Experiments:
Experiment in all cases: KINOMEscan competition binding
Conditions in all cases: compound 10.0 µM
BLK (human) = BLK (human) (UniProt P51451)
BRSK2 (human) = BRSK2 (human) (UniProt Q8IWQ3)
CAMK1D (human) = CAMK1D (human) (UniProt Q8IU85)
CAMK2D (human) = CAMK2D (human) (UniProt Q13557)
CDC2L2 (human) = CDC2L2 (human) (UniProt Q9UQ88)
CDK15 (human) = CDK15 (human) (UniProt Q96Q40)
CDK9 (human) = CDK9 (human) (UniProt P50750)
CDKL3 (human) = CDKL3 (human) (UniProt Q8IVW4)
CHEK1 (human) = CHEK1 (human) (UniProt O14757)
CLK1 (human) = CLK1 (human) (UniProt P49759)
CLK4 (human) = CLK4 (human) (UniProt Q9HAZ1)
CSNK1G2 (human) = CSNK1G2 (human) (UniProt P78368)
DDR1 (human) = DDR1 (human) (UniProt Q08345)
FGFR2 (human) = FGFR2 (human) (UniProt P21802)
GRK1 (human) = GRK1 (human) (UniProt Q15835)
HIPK1 (human) = HIPK1 (human) (UniProt Q86Z02)
HIPK1 (human), sequence (Q86Z02 whole entry, looked up): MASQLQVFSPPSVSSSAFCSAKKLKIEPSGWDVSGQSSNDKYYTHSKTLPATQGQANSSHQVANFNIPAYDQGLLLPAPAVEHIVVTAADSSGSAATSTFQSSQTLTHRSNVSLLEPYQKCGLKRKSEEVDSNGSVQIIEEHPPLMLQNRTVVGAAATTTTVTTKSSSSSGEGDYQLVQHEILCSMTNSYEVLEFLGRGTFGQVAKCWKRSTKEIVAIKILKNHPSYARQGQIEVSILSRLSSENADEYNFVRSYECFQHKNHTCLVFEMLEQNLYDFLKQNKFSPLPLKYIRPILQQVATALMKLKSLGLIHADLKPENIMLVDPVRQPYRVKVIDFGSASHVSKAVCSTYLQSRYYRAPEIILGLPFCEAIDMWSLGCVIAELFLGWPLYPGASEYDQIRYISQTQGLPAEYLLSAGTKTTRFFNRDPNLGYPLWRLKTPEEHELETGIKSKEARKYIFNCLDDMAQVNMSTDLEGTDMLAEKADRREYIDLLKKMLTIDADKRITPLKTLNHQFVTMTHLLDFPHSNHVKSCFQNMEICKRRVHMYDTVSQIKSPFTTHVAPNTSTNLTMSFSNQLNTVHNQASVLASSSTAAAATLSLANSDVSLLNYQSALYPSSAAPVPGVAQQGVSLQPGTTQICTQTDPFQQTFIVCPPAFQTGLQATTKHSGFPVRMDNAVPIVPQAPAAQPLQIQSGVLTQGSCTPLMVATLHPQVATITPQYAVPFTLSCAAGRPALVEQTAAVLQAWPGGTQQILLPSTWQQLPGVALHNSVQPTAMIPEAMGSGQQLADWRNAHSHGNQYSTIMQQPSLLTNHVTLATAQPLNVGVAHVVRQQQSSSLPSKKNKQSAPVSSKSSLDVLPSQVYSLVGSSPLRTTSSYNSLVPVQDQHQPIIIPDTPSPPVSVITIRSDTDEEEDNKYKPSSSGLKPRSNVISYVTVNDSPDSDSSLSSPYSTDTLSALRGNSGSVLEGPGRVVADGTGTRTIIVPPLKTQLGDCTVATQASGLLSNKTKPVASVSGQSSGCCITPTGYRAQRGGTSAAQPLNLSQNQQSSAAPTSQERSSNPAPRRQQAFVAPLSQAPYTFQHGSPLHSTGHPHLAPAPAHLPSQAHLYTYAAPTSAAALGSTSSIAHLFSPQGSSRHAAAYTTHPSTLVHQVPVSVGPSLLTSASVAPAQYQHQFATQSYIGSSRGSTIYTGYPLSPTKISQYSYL

HUNK (human) = HUNK (human) (UniProt P57058)
KDR (human) = KDR (human) (UniProt P35968)
MAP3K13 (human) = MAP3K13 (human) (UniProt O43283)
MAP3K6 (human) = MAP3K6 (human) (UniProt O95382)
MAP3K9 (human) = MAP3K9 (human) (UniProt P80192)
MAP4K2 (human) = MAP4K2 (human) (UniProt Q12851)
MAP4K4 (human) = MAP4K4 (human) (UniProt O95819)
MAP4K4 (human), sequence (O95819 whole entry, looked up): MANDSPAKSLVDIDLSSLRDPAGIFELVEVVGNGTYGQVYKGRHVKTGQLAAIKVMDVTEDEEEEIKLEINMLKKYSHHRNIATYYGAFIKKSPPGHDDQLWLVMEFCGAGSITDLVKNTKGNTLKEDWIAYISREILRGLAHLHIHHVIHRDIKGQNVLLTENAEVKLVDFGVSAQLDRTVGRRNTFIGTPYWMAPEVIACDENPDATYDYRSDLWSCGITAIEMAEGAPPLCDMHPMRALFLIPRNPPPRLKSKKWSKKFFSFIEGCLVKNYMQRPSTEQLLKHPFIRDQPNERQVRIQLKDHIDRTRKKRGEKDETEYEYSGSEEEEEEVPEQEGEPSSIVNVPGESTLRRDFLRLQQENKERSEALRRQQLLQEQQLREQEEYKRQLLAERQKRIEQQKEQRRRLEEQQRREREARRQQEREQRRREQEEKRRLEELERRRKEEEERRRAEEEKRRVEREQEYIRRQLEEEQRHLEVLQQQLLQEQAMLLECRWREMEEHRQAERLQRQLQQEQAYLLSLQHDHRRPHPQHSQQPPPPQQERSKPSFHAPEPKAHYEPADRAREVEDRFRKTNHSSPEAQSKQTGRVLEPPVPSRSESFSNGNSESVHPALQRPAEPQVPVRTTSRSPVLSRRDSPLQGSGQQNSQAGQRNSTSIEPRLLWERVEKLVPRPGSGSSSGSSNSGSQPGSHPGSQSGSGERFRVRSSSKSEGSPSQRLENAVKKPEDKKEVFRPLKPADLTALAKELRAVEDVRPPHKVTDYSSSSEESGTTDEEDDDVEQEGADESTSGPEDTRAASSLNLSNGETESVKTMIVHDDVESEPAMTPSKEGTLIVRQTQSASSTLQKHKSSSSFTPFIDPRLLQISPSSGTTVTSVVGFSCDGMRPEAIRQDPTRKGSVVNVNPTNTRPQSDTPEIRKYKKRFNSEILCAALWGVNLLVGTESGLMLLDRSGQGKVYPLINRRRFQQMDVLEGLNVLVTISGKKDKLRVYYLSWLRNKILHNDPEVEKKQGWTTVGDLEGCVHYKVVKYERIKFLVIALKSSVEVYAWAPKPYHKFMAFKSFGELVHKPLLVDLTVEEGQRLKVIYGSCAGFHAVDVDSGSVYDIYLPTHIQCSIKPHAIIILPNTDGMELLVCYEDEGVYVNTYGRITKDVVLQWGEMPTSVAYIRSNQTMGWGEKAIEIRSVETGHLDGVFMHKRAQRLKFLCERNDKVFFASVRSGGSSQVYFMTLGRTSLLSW

MAPK13 (human) = MAPK13 (human) (UniProt O15264)
MELK (human) = MELK (human) (UniProt Q14680)
MELK (human), sequence (Q14680 whole entry, looked up): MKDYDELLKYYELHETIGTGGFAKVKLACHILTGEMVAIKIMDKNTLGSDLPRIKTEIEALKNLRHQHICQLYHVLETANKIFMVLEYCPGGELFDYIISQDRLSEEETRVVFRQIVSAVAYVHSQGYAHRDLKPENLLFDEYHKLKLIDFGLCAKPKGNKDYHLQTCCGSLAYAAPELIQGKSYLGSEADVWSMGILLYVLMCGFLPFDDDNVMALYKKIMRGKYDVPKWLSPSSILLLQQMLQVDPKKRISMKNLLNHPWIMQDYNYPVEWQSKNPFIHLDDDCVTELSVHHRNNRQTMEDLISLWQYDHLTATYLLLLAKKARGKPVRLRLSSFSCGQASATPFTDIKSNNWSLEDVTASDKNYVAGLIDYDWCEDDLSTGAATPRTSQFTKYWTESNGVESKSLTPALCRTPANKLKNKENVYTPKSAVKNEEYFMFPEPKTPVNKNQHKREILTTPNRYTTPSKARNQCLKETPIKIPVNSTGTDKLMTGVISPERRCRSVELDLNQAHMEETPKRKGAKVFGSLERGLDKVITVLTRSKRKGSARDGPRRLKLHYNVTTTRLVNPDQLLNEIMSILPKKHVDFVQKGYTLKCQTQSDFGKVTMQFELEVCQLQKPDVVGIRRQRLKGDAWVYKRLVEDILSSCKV

MYLK (human) = MYLK (human) (UniProt Q15746)
PAK1 (human) = PAK1 (human) (UniProt Q13153)
PAK1 (human), sequence (Q13153 whole entry, looked up): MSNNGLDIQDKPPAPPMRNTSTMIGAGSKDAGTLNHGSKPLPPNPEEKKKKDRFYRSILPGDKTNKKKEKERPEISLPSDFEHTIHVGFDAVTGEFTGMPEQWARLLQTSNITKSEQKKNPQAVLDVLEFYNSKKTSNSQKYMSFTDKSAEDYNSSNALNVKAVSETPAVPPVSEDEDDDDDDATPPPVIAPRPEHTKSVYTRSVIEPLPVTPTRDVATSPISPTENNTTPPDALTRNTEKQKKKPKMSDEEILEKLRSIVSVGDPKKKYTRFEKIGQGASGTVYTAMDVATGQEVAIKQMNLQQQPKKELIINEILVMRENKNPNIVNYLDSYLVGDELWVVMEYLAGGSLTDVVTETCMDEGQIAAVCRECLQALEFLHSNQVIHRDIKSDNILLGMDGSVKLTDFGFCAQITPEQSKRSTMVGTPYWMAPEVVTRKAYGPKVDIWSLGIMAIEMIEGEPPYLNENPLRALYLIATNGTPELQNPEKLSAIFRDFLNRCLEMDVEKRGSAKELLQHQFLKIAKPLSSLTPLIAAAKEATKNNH

PKN1 (human) = PKN1 (human) (UniProt Q16512)
PRKCD (human) = PRKCD (human) (UniProt Q05655)
PRKCQ (human) = PRKCQ (human) (UniProt Q04759)
PTK6 (human) = PTK6 (human) (UniProt Q13882)
RPS6KA1 KD2 (human) = RPS6KA1 KD2 (human) (UniProt Q15418)
STK24 (human) = STK24 (human) (UniProt Q9Y6E0)
STK32A (human) = STK32A (human) (UniProt Q8WU08)
STK32B (human) = STK32B (human) (UniProt Q9NY57)
STK38 (human) = STK38 (human) (UniProt Q15208)
STK39 (human) = STK39 (human) (UniProt Q9UEW8)
STK4 (human) = STK4 (human) (UniProt Q13043)
TAOK2 (human) = TAOK2 (human) (UniProt Q9UL54)
ULK3 (human) = ULK3 (human) (UniProt Q6PHR2)

BRSK2 (human), sequence (Q8IWQ3 whole entry, looked up): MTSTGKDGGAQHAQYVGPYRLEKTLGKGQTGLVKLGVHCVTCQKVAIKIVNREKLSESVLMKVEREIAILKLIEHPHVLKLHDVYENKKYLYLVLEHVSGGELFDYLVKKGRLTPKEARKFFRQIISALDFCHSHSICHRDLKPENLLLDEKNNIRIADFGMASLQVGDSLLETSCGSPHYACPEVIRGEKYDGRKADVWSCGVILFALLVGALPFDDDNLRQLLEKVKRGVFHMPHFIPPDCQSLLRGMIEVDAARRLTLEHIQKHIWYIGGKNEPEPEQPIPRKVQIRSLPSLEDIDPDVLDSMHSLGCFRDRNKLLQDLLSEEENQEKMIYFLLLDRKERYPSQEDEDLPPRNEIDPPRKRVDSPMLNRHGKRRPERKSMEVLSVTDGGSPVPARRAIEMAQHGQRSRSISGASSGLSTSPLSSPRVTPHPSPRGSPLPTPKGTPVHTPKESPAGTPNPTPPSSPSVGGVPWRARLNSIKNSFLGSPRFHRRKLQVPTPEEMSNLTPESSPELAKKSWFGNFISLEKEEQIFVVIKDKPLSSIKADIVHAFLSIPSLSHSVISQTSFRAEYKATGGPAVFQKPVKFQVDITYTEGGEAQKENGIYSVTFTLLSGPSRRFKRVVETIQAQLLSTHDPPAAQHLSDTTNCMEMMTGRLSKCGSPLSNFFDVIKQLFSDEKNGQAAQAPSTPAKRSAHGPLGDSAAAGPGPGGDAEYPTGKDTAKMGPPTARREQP
CDKL3 (human), sequence (Q8IVW4 whole entry, looked up): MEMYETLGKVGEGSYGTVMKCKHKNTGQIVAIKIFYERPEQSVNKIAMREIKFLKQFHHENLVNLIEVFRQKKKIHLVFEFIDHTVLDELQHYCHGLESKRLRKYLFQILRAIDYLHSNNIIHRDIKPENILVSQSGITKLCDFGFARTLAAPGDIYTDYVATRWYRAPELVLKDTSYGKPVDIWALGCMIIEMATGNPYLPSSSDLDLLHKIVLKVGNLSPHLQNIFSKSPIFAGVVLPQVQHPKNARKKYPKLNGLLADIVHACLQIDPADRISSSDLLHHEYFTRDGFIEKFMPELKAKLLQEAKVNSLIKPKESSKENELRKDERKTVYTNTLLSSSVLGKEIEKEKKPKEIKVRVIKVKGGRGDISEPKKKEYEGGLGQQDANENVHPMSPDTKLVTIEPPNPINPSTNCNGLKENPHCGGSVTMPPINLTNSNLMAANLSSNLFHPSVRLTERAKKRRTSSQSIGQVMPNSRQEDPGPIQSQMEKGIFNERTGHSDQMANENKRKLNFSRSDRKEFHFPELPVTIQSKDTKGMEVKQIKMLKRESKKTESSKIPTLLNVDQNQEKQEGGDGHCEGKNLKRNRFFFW

SMILES | kinase still bound, per cent of control (BLK (human)) [%] | kinase still bound, per cent of control (BRSK2 (human)) [%] | kinase still bound, per cent of control (CAMK1D (human)) [%] | kinase still bound, per cent of control (CAMK2D (human)) [%] | kinase still bound, per cent of control (CDC2L2 (human)) [%] | kinase still bound, per cent of control (CDK15 (human)) [%] | kinase still bound, per cent of control (CDK9 (human)) [%] | kinase still bound, per cent of control (CDKL3 (human)) [%] | kinase still bound, per cent of control (CHEK1 (human)) [%] | kinase still bound, per cent of control (CLK1 (human)) [%] | kinase still bound, per cent of control (CLK4 (human)) [%] | kinase still bound, per cent of control (CSNK1G2 (human)) [%] | kinase still bound, per cent of control (DDR1 (human)) [%] | kinase still bound, per cent of control (FGFR2 (human)) [%] | kinase still bound, per cent of control (GRK1 (human)) [%] | kinase still bound, per cent of control (HIPK1 (human)) [%] | kinase still bound, per cent of control (HUNK (human)) [%] | kinase still bound, per cent of control (KDR (human)) [%] | kinase still bound, per cent of control (MAP3K13 (human)) [%] | kinase still bound, per cent of control (MAP3K6 (human)) [%] | other results
CN(C)C/C=C/C(=O)Nc1ccc(C(=O)Nc2cccc(Nc3nccc(-c4cccnc4)n3)c2)cc1 | 100 | 88 | 100 | 67 | 100 | 100 | 90 | 20 | 100 | 4.6 | 2.2 | 100 | 100 | 86 | 98 | 6 | 69 | 36 | 100 | 86 | kinase still bound, per cent of control (MAP3K9 (human)): 78%; kinase still bound, per cent of control (MAP4K2 (human)): 9%; kinase still bound, per cent of control (MAP4K4 (human)): 18%; kinase still bound, per cent of control (MAPK13 (human)): 100%; kinase still bound, per cent of control (MELK (human)): 58%; kinase still bound, per cent of control (MYLK (human)): 64%; kinase still bound, per cent of control (PAK1 (human)): 90%; kinase still bound, per cent of control (PKN1 (human)): 95%; kinase still bound, per cent of control (PRKCD (human)): 100%; kinase still bound, per cent of control (PRKCQ (human)): 68%; kinase still bound, per cent of control (PTK6 (human)): 100%; kinase still bound, per cent of control (RPS6KA1 KD2 (human)): 91%; kinase still bound, per cent of control (STK24 (human)): 100%; kinase still bound, per cent of control (STK32A (human)): 95%; kinase still bound, per cent of control (STK32B (human)): 100%; kinase still bound, per cent of control (STK38 (human)): 90%; kinase still bound, per cent of control (STK39 (human)): 58%; kinase still bound, per cent of control (STK4 (human)): 100%; kinase still bound, per cent of control (TAOK2 (human)): 70%; kinase still bound, per cent of control (ULK3 (human)): 88%
NC(=O)Nc1cc(-c2cccc(F)c2)sc1C(=O)N[C@@H]1CCCNC1 | 0 | 2.8 | 0.2 | 6.7 | 100 | 73 | 88 | 100 | 0.25 | 1.2 | 2.4 | 0.95 | 10 | 11 | 0.6 | 7.2 | 68 | 0.05 | 7 | 25 | kinase still bound, per cent of control (MAP3K9 (human)): 0.15%; kinase still bound, per cent of control (MAP4K2 (human)): 0%; kinase still bound, per cent of control (MAP4K4 (human)): 0.5%; kinase still bound, per cent of control (MAPK13 (human)): 100%; kinase still bound, per cent of control (MELK (human)): 1.4%; kinase still bound, per cent of control (MYLK (human)): 3.3%; kinase still bound, per cent of control (PAK1 (human)): 1.2%; kinase still bound, per cent of control (PKN1 (human)): 0%; kinase still bound, per cent of control (PRKCD (human)): 0.65%; kinase still bound, per cent of control (PRKCQ (human)): 0%; kinase still bound, per cent of control (PTK6 (human)): 1.4%; kinase still bound, per cent of control (RPS6KA1 KD2 (human)): 1.4%; kinase still bound, per cent of control (STK24 (human)): 0.3%; kinase still bound, per cent of control (STK32A (human)): 1%; kinase still bound, per cent of control (STK32B (human)): 1%; kinase still bound, per cent of control (STK38 (human)): 4%; kinase still bound, per cent of control (STK39 (human)): 4.4%; kinase still bound, per cent of control (STK4 (human)): 0.4%; kinase still bound, per cent of control (TAOK2 (human)): 35%; kinase still bound, per cent of control (ULK3 (human)): 0%
